The nature of series [1]: Fat binding feeding study in rats on formulated high fat diet.
Experimental: (§1) All rats were fed a basal diet for 5 days prior to initiation of dosing on Day 0. At Day 0, animals in Groups 1 to 5 and 7 received the appropriate formulated diet. The diet was available ad libitum. […] The total amount of the diet consumed by each animal was determined every 3 to 4 days.
The conditions of series [2]: rat, in vivo.
Experimental: as §1

SMILES strings stand for the structures.

The record followed here is patent US20030018176A1, “Dry acid-chitosan complexes” (priority 1999, published 2003).

`CCCCCCCCCCC[C@@H](C[C@@H]1OC(=O)[C@H]1CCCCCC)OC(=O)[C@H](CC(C)C)NC=O` [Xenical] displayed a Triglycerides in series [1] (blood of rats, test article in diet) of 107 mg/dL. In addition, the “Weight Gain” value in series [1] (rats, test article in diet ad libitum) is recorded as 425 gms. In series [2], the ALT turned out to be 54 IU/L, the AST was found to be 104 IU/L and the Bilirubin came to 0.4 mg/dL.
